Source: patent US20230240288A1, “FRUIT TREE POLLINATION METHOD FOR PREVENTING AND CONTROLLING ERWINIA AMYLOVORA-CAUSED DISEASE” (ZHEJIANG UNIVERSITY, priority 2022, published 2023)
Values after ≈ are worked out from the molar mass of the structure shown.

Experiments:
[1] = system: Erwinia amylovora XJSZ0102; assay: Inhibition zone (filter paper) method, high-concentration screening of 52 agents; format: cell-based; details: results of filter paper method and turbidimetry; at a high concentration
[2] = system: Erwinia amylovora; assay: Orchard pollination test (I): liquid pollination, bacteria-carrying pollen, disease-free bergamot pear trees; details: artificial pollination with pollen suspension containing the agent
Experimental: 10 g of xanthan gum was dissolved in 2.5 L of continuously-boiling water and cooled to obtain a solution I; 6.5 kg of white sugar was dissolved with 10 L of hot water to obtain a solution II; 25 g of calcium nitrate and 5 g of boric acid were dissolved in 0.5 L of water to obtain a solution III; the above three solutions were poured into a large container, then added with 30 L of water, and stirred well to prepare a nutrient solution for later use.
Each agent was diluted with water to form a stock solution, and 100 mL of the stock solution was added to 9.9 L of the nutrient solution, fully stirred and mixed, such that a final concentration of the agent in the nutrient solution was shown in Table 7, and 9 groups of agent treatments were obtained in total.
4 g of the pollen was added to 4 L of a prepared nutrient solution containing the agent, stirred to make the pollen evenly dispersed to prepare a pollen suspension, which was then pollinated by spraying with a shoulder-back electric sprayer. The pollination period was at 40% blooming and at 80% blooming separately, each tree was sprayed with 1 L of the pollen suspension, and each agent treatment group was sprayed to pollinate 3 trees. […] 2 weeks after pollination, a fruit setting rate and the number of flower rot and diseased fruit were counted to calculate an incidence.

[3] = system: Erwinia amylovora XJSZ0102; assay: Toxicity of bactericides against Erwinia amylovora (growth inhibition OD600, EC50 regression)
[4] = system: Erwinia amylovora; assay: Orchard pollination test (II): liquid pollination, bacteria-free pollen, orchard with moderate pear fire blight; details: artificial pollination with pollen containing the agent, moderate occurrence orchard
Experimental: 10 g of xanthan gum was dissolved in 2.5 L of continuously-boiling water and cooled to obtain a solution I; 6.5 kg of white sugar was dissolved with 10 L of hot water to obtain a solution II; 25 g of calcium nitrate and 5 g of boric acid were dissolved in 0.5 L of water to obtain a solution III; the above three solutions were poured into a large container, then added with 30 L of water, and stirred well to prepare a nutrient solution for later use. […]
4 g of the pollen was added to 4 L of a prepared nutrient solution containing the agent, stirred to make the pollen evenly dispersed to prepare a pollen suspension, which was then pollinated by spraying with a shoulder-back electric sprayer. […] A pollen suspension prepared with water instead of the agent was set as a positive control group, and the pollen suspension prepared with water instead of the agent and sprayed on disease-free trees was set as a negative control group, and 3 trees were treated by each group.2 weeks after pollination, a fruit setting rate and the number of flower rot and diseased fruit were counted to calculate an incidence.

[5] = Erwinia amylovora, XJSZ0102, 24 h, read-out: Inhibition rate (%)

Row | Molecule | bacteriostatic effect on Erwinia amylovora [1] | incidence of flower rot and fruit rot caused by pear fire blight, compared with positive control [2] | EC50 ([3]; Erwinia amylovora, XJSZ0102, 24 h) | inhibition at 0.0125 µg/mL [3, 5] | inhibition at 0.0175 µg/mL [3, 5] | inhibition at 0.025 µg/mL [3, 5] | inhibition at 0.035 µg/mL [3, 5] | inhibition at 0.05 µg/mL [3, 5] | incidence of pear fire blight-based flower rot and fruit rot, compared with positive control group [4] | Inhibition rate (%) ([3]; concentration 0.100 mg/L, 24 h) | Inhibition rate (%) ([3]; concentration 0.160 mg/L, 24 h) | Inhibition rate (%) ([3]; concentration 0.256 mg/L, 24 h) | Inhibition rate (%) ([3]; concentration 0.410 mg/L, 24 h) | Inhibition rate (%) ([3]; concentration 0.655 mg/L, 24 h) | EC50 ([3]; toxic regression analysis of bacteriostasis rate, 24 h)
1 | CCCSc1ccc2nc(NC(=O)OC)[nH]c2c1 [Albendazole, albendazole] | desirable bacteriostatic effect | significantly lower incidence than that of the positive control | 0.022 µg/mL (≈ 0.0829 µM) | 15.2% | 33% | 54.6% | 82% | 95.4% | significantly lower than that of the positive control group |  |  |  |  |  | 
2 | zhongshengmycin | desirable bacteriostatic effect | significantly lower incidence than that of the positive control |  |  |  |  |  |  | significantly lower than that of the positive control group | 28.58% | 40.31% | 56.63% | 66.08% | 81.07% | 0.22 µg/mL
